Earlier results on one molecule are cited in patent EP0529484A1, “Antitussive and expectorant composition” (ND NEW DRUG DEVELOPMENT INSTITUTE INC., priority 1991, dated 1993).

SMILES strings stand for the structures.

Series [1] has as its system mouse.
Series [2] has as its system rat.

As to `C[N+]1(CCF)[C@@H]2CC[C@H]1C[C@@H](OC(=O)C(O)(c1ccccc1)c1ccccc1)C2` (stereo partly drawn) [flutropium bromide, 8(r)-8-(2-fluoroethyl)-3α-hydroxy-1αH,5αH-tropanium bromide, benzilate hydrate], the “LD₅₀ through oral administration” value in series [1] is 930 mg/kg; in series [2], 2,900 mg/kg.
